Measured values: patent publication US20250361261A1, “CYCLOPENTYL ADENOSINE DERIVATIVE AND PHARMACEUTICAL USE THEREOF” (priority 2022, published 2025)

Tested on: CFA inflammatory pain model
Test: CFA inflammatory pain model, mechanical pain threshold by VonFrey electronic aesthesiometer
Format: in vivo, Sprague-Dawley (SD) rats
Source text: Experimental animals: SPF male Sprague-Dawley (SD) rats, weighing 180±30 g, obtained from Shanghai Sippe-Bk Lab Animal Co., Ltd. Experimental samples: Compounds 1, 2, and 3 and CCPA were used to prepare the corresponding pharmaceutical compositions according to the following formulation amounts and method. [table] Preparation method: Formulation amounts of compounds 1, 2, and 3 and CCPA were separately weighed out, added to a proper amount of tert-butanol/water mixed solution, and dissolved by stirring. Then formulation amounts of dimyristoylphosphatidylcholine (DMPC) and cholesterol were added and dissolved by stirring. The above solutions were made up to volume (25-40 mL), added to vials, and lyophilized in a lyophilizer for later use. When used, the lyophilizates were dissolved in normal saline to 1 mg/mL, 2 mg/mL, 4 mg/mL, and 8 mg/mL. SD rats, 6 to 8-week-old and weighing 150 g-200 g, were divided into a control group, a model control group, and an administration group. A CFA inflammatory pain model was obtained 24 h after 100 μL of complete Freund's adjuvant was injected into the soles of the left feet of the rats in the model control group and the administration group. The injection was performed at left Zusanli, and the injection volume was 100 μL. [table] Note: For the control group, 100 μL of normal saline was injected into the soles of the feet. For the model control group, 100 μL of normal saline was injected into Zusanli after the model was successfully established. A VonFrey electronic aesthesiometer was used to measure the pain threshold, and mechanical pain was used as an evaluation index. Observations of the basal pain threshold were started 1 day before the model was established and ended 14 days after the model was established. Pain thresholds before and after administration for different groups of animals were plotted using Graph Pad Prism 8.3.0 software. Based on the dose-response curve 48 h after administration, the EC50 and EC90 were obtained through fitting.

## CCCCCCCCCCCCCCC(=O)OC[C@H]1O[C@@H](n2cnc3c(NC4CCCC4)nc(Cl)nc32)[C@H](O)[C@@H]1O [Compound 1, ((2R,3S,4R,5R)-5-(2-Chloro-6-(cyclopentylamino)-9H-purin-9-yl)-3,4-dihydroxytetrahydrofuran-2-yl)methyl pentadecanoate]
Compared to CCPA
  EC50 change compared to CCPA: 4 fold
  EC90 change compared to CCPA: 6 fold
Compared to compound 2
  EC50 change compared to compound 2: ~3 fold
  EC90 change compared to compound 2: ~3 fold
